Here are results for three molecules from ChEMBL document CHEMBL1127135, “Synthesis and biological properties of 3-[()-2-(1,2,3-Thiadiazolyl)ethenyl]-substituted cephalosporins and related compounds: new oral cephalosporins” (Bioorg Med Chem Lett, 1993).

In brackets after ≈: the same amount, converted by molar mass.

The nature of data set [1]: Evaluated for pharmacokinetic parameter Cmax in rabbit at the dose 20 mg/kg. The class given is ADME, organism-based, Oryctolagus cuniculus. Details: dose 20 mg/kg. The settings on record: in vivo.
Data set [2] can be described thus: Evaluated for pharmacokinetic parameter tmax in rabbit at the dose 20 mg/kg. Particulars: in vivo. The class given is ADME, organism-based, Oryctolagus cuniculus. Details: dose 20 mg/kg.
Data set [3] is described as follows: Evaluated for pharmacokinetic parameter urine recovery in rat at the dose 50 mg/kg ( 0-24 hr ). It is filed as ADME, organism-based. Details: dose 50 mg/kg. Particulars: read-out: UR.
Data set [4] can be described thus: Evaluated for pharmacokinetic parameter urine recovery in mouse at the dose 20 mg/kg ( 0-24 hr ). The class given is ADME, organism-based. Details: dose 20 mg/kg. Particulars: read-out: UR.
Data set [5] can be described thus: Evaluated for pharmacokinetic parameter half-life in mouse at the dose 20 mg/kg. The class given is ADME, organism-based. Also on record: dose 20 mg/kg. The settings on record: in vivo.
Data set [6] in a line: Evaluated for pharmacokinetic parameter tmax in rat at the dose 50 mg/kg. The class given is ADME, organism-based. Details: dose 50 mg/kg. Particulars: in vivo.
Data set [7] in a line: Evaluated for pharmacokinetic parameter half-life in rat at the dose 50 mg/kg. It is filed as ADME, organism-based. Also on record: dose 50 mg/kg. Particulars: in vivo.
Data set [8] in a line: Evaluated for pharmacokinetic parameter area under curve in mouse at the dose 20 mg/kg (0-4 hr). The class given is ADME, organism-based. Also on record: time < 4 hr, dose 20 mg/kg. Particulars: in vivo.
Data set [9] can be described thus: Evaluated for pharmacokinetic parameter Cmax in rat at the dose 50 mg/kg. The class given is ADME, organism-based. Also on record: dose 50 mg/kg. Particulars: in vivo.
Data set [10] can be described thus: Evaluated for pharmacokinetic parameter Cmax in mouse at the dose 20 mg/kg. Details: dose 20 mg/kg. The settings on record: in vivo. It is filed as ADME, organism-based.
The nature of data set [11]: Evaluated for pharmacokinetic parameter half-life in rabbit at the dose 20 mg/kg. Particulars: in vivo. It is filed as ADME, organism-based, Oryctolagus cuniculus. Also on record: dose 20 mg/kg.
A short description of data set [12]: Evaluated for pharmacokinetic parameter area under curve in rabbit at the dose 20 mg/kg ( 0-4 hr ). It is filed as ADME, organism-based, Oryctolagus cuniculus. Details: time < 4 hr, dose 20 mg/kg. The settings on record: in vivo.
Data set [13] in a line: Evaluated for pharmacokinetic parameter area under curve in rat at the dose 50 mg/kg ( 0-8 hr ). The class given is ADME, organism-based. Also on record: time < 8 hr, dose 50 mg/kg. Particulars: in vivo.
Data set [14] can be described thus: Evaluated for pharmacokinetic parameter urine recovery in rabbit at the dose 20 mg/kg ( 0-24 hr ). The class given is ADME, organism-based, Oryctolagus cuniculus. Details: dose 20 mg/kg. The settings on record: read-out: UR.
The nature of data set [15]: Evaluated for pharmacokinetic parameter tmax in mouse at the dose 20 mg/kg. The class given is ADME, organism-based. Also on record: dose 20 mg/kg. Particulars: in vivo.
Data set [16] has as its system Staphylococcus aureus. As to the kind of experiment: Antibacterial activity against Staphylococcus aureus 209P-JC was determined. The class given is functional.
In data set [17] the test system is Proteus mirabilis. As to the kind of experiment: Antibacterial activity against Proteus mirabilis IFO3849 was determined. It is filed as functional.
Data set [18] concerns Enterococcus hirae. As to the kind of experiment: Antibacterial activity against Enterococcus hirae ATCC 8043 was determined. It is filed as functional.
Data set [19] relates to Escherichia coli. As to the kind of experiment: Antibacterial activity against Escherichia coli ATCC 25922 was determined. The class given is functional.
Data set [20] relates to Providencia rettgeri. As to the kind of experiment: Antibacterial activity against Providencia rettgeri IFO3850 was determined. The class given is functional.
For data set [21], the system named is Serratia marcescens. As to the kind of experiment: Antibacterial activity against Serratia marcescens IID 618 was determined. It is filed as functional.
Data set [22] has as its system Morganella morganii. As to the kind of experiment: Antibacterial activity against Morganella morganii IID 602 was determined. It is filed as functional.
Data set [23] has as its system Klebsiella pneumoniae. As to the kind of experiment: Antibacterial activity against Klebsiella pneumoniae IFO 3317 was determined. It is filed as functional.
In data set [24] the test system is Escherichia coli. As to the kind of experiment: Antibacterial activity against Escherichia coli NIHJ JC-2 was determined. It is filed as functional.
For data set [25], the system named is Staphylococcus epidermidis. As to the kind of experiment: Antibacterial activity against Staphylococcus epidermidis IID 866 was determined. It is filed as functional.
Data set [26] concerns Enterobacter cloacae. As to the kind of experiment: Antibacterial activity against Enterobacter cloacae 963 was determined. The class given is functional.
The subject of data set [27] is Staphylococcus aureus. As to the kind of experiment: Antibacterial activity against Staphylococcus aureus ATCC 25923 was determined. It is filed as functional.
The subject of data set [28] is Proteus vulgaris. As to the kind of experiment: Antibacterial activity against Proteus vulgaris HX-19 was determined. It is filed as functional.
Data set [29] deals with Klebsiella aerogenes. As to the kind of experiment: Antibacterial activity against Enterobacter aerogenes IFO 13048 was determined. It is filed as functional.
Data set [30] has as its system Moraxella catarrhalis. As to the kind of experiment: Antibacterial activity against M(B). catarrhalis ATCC 25238 was determined. It is filed as functional.
In data set [31] the test system is Micrococcus luteus. As to the kind of experiment: Antibacterial activity against Micrococcus luteus ATCC 9341 was determined. It is filed as functional.
Data set [32] concerns Pseudomonas aeruginosa. As to the kind of experiment: Antibacterial activity against Pseudomonas aeruginosa NCTC 10490 was determined. It is filed as functional.
The test system of data set [33] is Staphylococcus aureus. As to the kind of experiment: Antibacterial activity against Staphylococcus aureus Smith was determined. The class given is functional.

As usually defined, the Cmax is the highest concentration seen after dosing. A word on the Tmax: it is the time at which the peak concentration occurs. One may read the half-life as the time in which the quantity being followed falls by half. A word on the AUC: it is concentration integrated over time. A higher AUC goes with more exposure. As for `CC(C)(C)C(=O)OCOC(=O)C1=C(/C=C\c2csnn2)CSC2C(NC(=O)/C(=N\O)c3csc(N)n3)C(=O)N12` (stereo not drawn), the Cmax was determined as 2400 ng/mL in [1], 15200 ng/mL in [9] and 20500 ng/mL in [10]. Further, the Tmax in data set [2] was 1 h; in data set [6], 1 h; in data set [15], 30 min. Besides, the dose excreted was 9.5% in data set [3], 42.8% in [4] and 17.2% in [14]. Further, the figures for the half-life in [5], in data set [7] and in [11] were 162 min, 108 min and 138 min, respectively. Also, the AUC at 4 h in data set [8] was 62000 ng·h/mL; in data set [12], 10500 ng·h/mL. In data set [13], the AUC at 8 h stood at 37900 ng·h/mL.
Broadly, the MIC is the lowest concentration that inhibits growth of the organism. The low end stands for inhibition by little substance, the high end for a need for much substance. Regarding `Cc1nnsc1/C=C\C1=C(C(=O)O)N2C(=O)C(NC(=O)/C(=N\O)c3csc(N)n3)C2SC1` (stereo not drawn), the MIC in data set [16] was 0.2 µg/mL (≈ 0.405 µM); in data set [17], 0.1 µg/mL (≈ 0.203 µM); in data set [18] it was 25 µg/mL (≈ 50.7 µM); in data set [19], 0.2 µg/mL (≈ 0.405 µM); in data set [20] it was no more than 6 ng/mL; in data set [21] it was 0.78 µg/mL (≈ 1.58 µM). In addition, the MIC came out at 0.05 µg/mL (≈ 0.101 µM) in [22], 0.05 µg/mL (≈ 0.101 µM) in [23], 0.1 µg/mL (≈ 0.203 µM) in data set [24] and 0.2 µg/mL (≈ 0.405 µM) in data set [25].
With `Cc1snnc1/C=C\C1=C(C(=O)O)N2C(=O)C(NC(=O)/C(=N\O)c3csc(N)n3)C2SC1` (stereo not drawn), the MIC in data set [16] was determined as 0.2 µg/mL (≈ 0.405 µM); in data set [17] it was 0.39 µg/mL (≈ 0.79 µM); in data set [18], 25 µg/mL (≈ 50.7 µM); in [26], 0.39 µg/mL (≈ 0.79 µM); in data set [19], 0.2 µg/mL (≈ 0.405 µM); in data set [27], 0.39 µg/mL (≈ 0.79 µM). Also, the MIC in [28] was 0.05 µg/mL (≈ 0.101 µM); in data set [20] it was no more than 6 ng/mL; in [29] it was 0.78 µg/mL (≈ 1.58 µM); in [30] it was 0.05 µg/mL (≈ 0.101 µM); in data set [31], 0.025 µg/mL (≈ 0.0507 µM); in data set [21] it was 0.78 µg/mL (≈ 1.58 µM). In addition, the minimum inhibitory concentration (MIC) is 0.05 µg/mL (≈ 0.101 µM) in data set [22]; 0.025 µg/mL (≈ 0.0507 µM) in data set [23]; 0.39 µg/mL (≈ 0.79 µM) in data set [24]; 0.39 µg/mL (≈ 0.79 µM) in [25]; greater than 100 µg/mL in data set [32]; 0.2 µg/mL (≈ 0.405 µM) in data set [33].
